According to US6737383B1, “Herbicidal oxadiazolidines” (priority 1999, dated 2004):

What was measured:
duck salad = assay: Test B flood test duck salad; type: in vivo, Heteranthera limosa
Method in brief: (§1)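 Each value is a visual injury score relative to controls, with 10 meaning complete control and 0 no effect. Evaluation took place twelve to sixteen days after the 2-leaf-stage plants were treated and kept in the greenhouse.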

sugar beet = assay: Test B pre/postemergence sugar beet; type: in vivo, Beta vulgaris
Method in brief: (§2)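 Test chemicals in a non-phytotoxic solvent mixture with surfactant were sprayed preemergence onto planted seeds and postemergence onto plants 2 to 18 cm tall (1- to 4-leaf stage). After twelve to sixteen days in a greenhouse, injury was visually rated against untreated controls from 0 (no effect) to 10 (complete control).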

rape = assay: Test B pre/postemergence rape; type: in vivo, Brassica napus
Method in brief: as §2

bamyardgrass = assay: Test B flood test barnyardgrass; type: in vivo, Echinochloa crus-galli
Method in brief: as §1

blackgrass = assay: Test B pre/postemergence blackgrass; type: in vivo, Alopecurus myosuroides
Method in brief: as §2

soybean = assay: Test B pre/postemergence soybean; type: in vivo, Glycine max
Method in brief: as §2

giant foxtail = assay: Test B pre/postemergence giant foxtail; type: in vivo, Setaria faberii
Method in brief: as §2

pigweed = assay: Test B pre/postemergence pigweed; type: in vivo, Amaranthus retroflexus
Method in brief: as §2

purple nutsedge = assay: Test B pre/postemergence purple nutsedge; type: in vivo, Cyperus rotundus
Method in brief: as §2

cocklebur = assay: Test B pre/postemergence cocklebur; type: in vivo, Xanthium strumarium
Method in brief: as §2

surinam grass = assay: Test B pre/postemergence surinam grass; type: in vivo, Brachiaria decumbens
Method in brief: as §2

corn = assay: Test B pre/postemergence corn; type: in vivo, Zea mays
Method in brief: as §2

smallflower flatsedge = assay: Test B flood test smallflower flatsedge; type: in vivo, Cyperus difformis
Method in brief: as §1

wheat = assay: Test B pre/postemergence wheat; type: in vivo, Triticum aestivum
Method in brief: as §2

crabgrass = assay: Test B pre/postemergence crabgrass; type: in vivo, Digitaria sanguinalis
Method in brief: as §2

[1] = Rate 62 g/ha, flood test species, Pre-emergence, visual evaluation after twelve to sixteen days
[2] = Rate 125 g/ha, under heading Pre-emergence, flood test species, visual evaluation after twelve to sixteen days
[3] = Rate 250 g/ha, Pre-emergence (flood test species), scale 0 to 10, 0 is no effect, 10 is complete control
[4] = Rate 500 g/ha, Pre-emergence section of Table B, 0 to 10 scale (0 no effect, 10 complete control)
[5] = Postemergence, Rate 62 g/ha, scale of 0 to 10, 0 is no effect, 10 is complete control
[6] = Postemergence, Rate 500 g/ha, scale 0 to 10, 0 is no effect, 10 is complete control
[7] = Preemergence, Rate 62 g/ha, scale 0 to 10 (0 no effect, 10 complete control)
[8] = Preemergence, Rate 125 g/ha, scale 0 to 10, 0 is no effect, 10 is complete control
[9] = Preemergence, Rate 500 g/ha, scale of 0 to 10 where 0 is no effect and 10 is complete control
[10] = Rate 250 g/ha, Postemergence, scale of 0 to 10 where 0 is no effect and 10 is complete control
[11] = Postemergence, Rate 125 g/ha, scale 0 to 10, 0 is no effect, 10 is complete control

Question: For `CCC=CCn1c(=O)on(C(=O)N(c2ccc(Cl)cc2)C(C)C)c1=O` [Compound 552], which “Plant response rating, Ducksalad (0 to 10 scale, 0 is no effect, 10 is complete control)” value (duck salad; [1]) is on record?
Answer: 0

Question: What about the “Ducksalad plant response rating (0 to 10 scale, 0 is no effect, 10 is complete control)” value (duck salad; [2]) of the same compound?
Answer: 0

Question: What about the “Ducksalad plant response rating” value (duck salad; [3]) of the same compound?
Answer: 0

Question: And the “Ducksalad plant response rating” value (duck salad; [4])?
Answer: 0

Question: What about the “Sugarbeets plant response rating” value (sugar beet; [5]) of the same compound?
Answer: 0

Question: What about the “Plant response rating, Sugarbeets” value (sugar beet; [6]) of the same compound?
Answer: 7

Question: And the “Sugarbeets plant response rating” value (sugar beet; [7])?
Answer: 0

Question: What about the “Sugarbeets plant response rating” value (sugar beet; [8]) of the same compound?
Answer: 0

Question: And the “Sugarbeets plant response rating (0 to 10 scale)” value (sugar beet; Preemergence, Rate 250 g/ha)?
Answer: 0

Question: What about the “Sugarbeets plant response rating” value (sugar beet; [9]) of the same compound?
Answer: 5

Question: What about the “Plant response rating, Sugarbeets” value (sugar beet; [10]) of the same compound?
Answer: 3

Question: What about the “Rape plant response rating” value (rape; [5]) of the same compound?
Answer: 2

Question: And the “Rape plant response rating” value (rape; [11])?
Answer: 6

Question: And the “Plant response rating, Rape” value (rape; [6])?
Answer: 7

Question: And the “Rape plant response rating” value (rape; [7])?
Answer: 0

Question: And the “Rape plant response rating” value (rape; [8])?
Answer: 0

Question: What about the “Rape plant response rating (0 to 10 scale)” value (rape; Preemergence, Rate 250 g/ha) of the same compound?
Answer: 0

Question: What about the “Rape plant response rating” value (rape; [9]) of the same compound?
Answer: 0

Question: What about the “Plant response rating, Rape” value (rape; [10]) of the same compound?
Answer: 4

Question: And the “Plant response rating, Barnyardgrass (0 to 10 scale, 0 is no effect, 10 is complete control)” value (bamyardgrass; [1])?
Answer: 0

Question: And the “Barnyardgrass plant response rating (0 to 10 scale, 0 is no effect, 10 is complete control)” value (bamyardgrass; [2])?
Answer: 0

Question: What about the “Barnyardgrass plant response rating” value (bamyardgrass; [3]) of the same compound?
Answer: 0

Question: What about the “Barnyardgrass plant response rating” value (bamyardgrass; [4]) of the same compound?
Answer: 0

Question: What about the “Blackgrass plant response rating” value (blackgrass; [5]) of the same compound?
Answer: 0

Question: And the “Blackgrass plant response rating” value (blackgrass; [11])?
Answer: 0

Question: And the “Plant response rating, Blackgrass” value (blackgrass; [6])?
Answer: 7

Question: And the “Blackgrass plant response rating” value (blackgrass; [7])?
Answer: 0

Question: And the “Blackgrass plant response rating” value (blackgrass; [8])?
Answer: 0

Question: What about the “Blackgrass plant response rating (0 to 10 scale)” value (blackgrass; Preemergence, Rate 250 g/ha) of the same compound?
Answer: 0

Question: What about the “Blackgrass plant response rating” value (blackgrass; [9]) of the same compound?
Answer: 8

Question: And the “Plant response rating, Blackgrass” value (blackgrass; [10])?
Answer: 0

Question: What about the “Soybean plant response rating” value (soybean; [5]) of the same compound?
Answer: 2

Question: And the “Plant response rating, Soybean” value (soybean; [6])?
Answer: 3

Question: And the “Soybean plant response rating” value (soybean; [7])?
Answer: 0

Question: What about the “Soybean plant response rating” value (soybean; [8]) of the same compound?
Answer: 0

Question: And the “Soybean plant response rating (0 to 10 scale)” value (soybean; Preemergence, Rate 250 g/ha)?
Answer: 0

Question: What about the “Soybean plant response rating” value (soybean; [9]) of the same compound?
Answer: 0

Question: What about the “Plant response rating, Soybean” value (soybean; [10]) of the same compound?
Answer: 3

Question: And the “Giant foxtail plant response rating” value (giant foxtail; [5])?
Answer: 0

Question: And the “Giant foxtail plant response rating” value (giant foxtail; [11])?
Answer: 3

Question: And the “Plant response rating, Giant foxtail” value (giant foxtail; [6])?
Answer: 7

Question: What about the “Giant foxtail plant response rating” value (giant foxtail; [7]) of the same compound?
Answer: 9

Question: And the “Giant foxtail plant response rating” value (giant foxtail; [8])?
Answer: 10

Question: And the “Giant foxtail plant response rating (0 to 10 scale)” value (giant foxtail; Preemergence, Rate 250 g/ha)?
Answer: 10

Question: What about the “Giant foxtail plant response rating” value (giant foxtail; [9]) of the same compound?
Answer: 10

Question: What about the “Plant response rating, Giant foxtail” value (giant foxtail; [10]) of the same compound?
Answer: 3

Question: And the “Redroot pigweed plant response rating” value (pigweed; [5])?
Answer: 0

Question: And the “Plant response rating, Redroot pigweed” value (pigweed; [6])?
Answer: 3

Question: And the “Redroot pigweed plant response rating” value (pigweed; [7])?
Answer: 0

Question: And the “Redroot pigweed plant response rating” value (pigweed; [8])?
Answer: 4

Question: What about the “Redroot pigweed plant response rating (0 to 10 scale)” value (pigweed; Preemergence, Rate 250 g/ha) of the same compound?
Answer: 4

Question: And the “Redroot pigweed plant response rating” value (pigweed; [9])?
Answer: 4

Question: What about the “Plant response rating, Redroot pigweed” value (pigweed; [10]) of the same compound?
Answer: 0

Question: What about the “Nutsedge plant response rating” value (purple nutsedge; [5]) of the same compound?
Answer: 0

Question: What about the “Nutsedge plant response rating” value (purple nutsedge; [11]) of the same compound?
Answer: 0

Question: What about the “Plant response rating, Nutsedge” value (purple nutsedge; [6]) of the same compound?
Answer: 0

Question: And the “Nutsedge plant response rating” value (purple nutsedge; [7])?
Answer: 0

Question: And the “Nutsedge plant response rating” value (purple nutsedge; [8])?
Answer: 0

Question: What about the “Nutsedge plant response rating (0 to 10 scale)” value (purple nutsedge; Preemergence, Rate 250 g/ha) of the same compound?
Answer: 0

Question: What about the “Nutsedge plant response rating” value (purple nutsedge; [9]) of the same compound?
Answer: 0

Question: What about the “Plant response rating, Nutsedge” value (purple nutsedge; [10]) of the same compound?
Answer: 0

Question: What about the “Cocklebur plant response rating” value (cocklebur; [5]) of the same compound?
Answer: 0

Question: And the “Cocklebur plant response rating” value (cocklebur; [11])?
Answer: 0

Question: And the “Plant response rating, Cocklebur” value (cocklebur; [6])?
Answer: 4

Question: And the “Cocklebur plant response rating” value (cocklebur; [7])?
Answer: 0

Question: And the “Cocklebur plant response rating” value (cocklebur; [8])?
Answer: 0

Question: And the “Cocklebur plant response rating (0 to 10 scale)” value (cocklebur; Preemergence, Rate 250 g/ha)?
Answer: 0

Question: What about the “Cocklebur plant response rating” value (cocklebur; [9]) of the same compound?
Answer: 0

Question: And the “Plant response rating, Cocklebur” value (cocklebur; [10])?
Answer: 2

Question: What about the “B. signalgrass plant response rating” value (surinam grass; [5]) of the same compound?
Answer: 0

Question: And the “B. signalgrass plant response rating” value (surinam grass; [11])?
Answer: 0

Question: What about the “Plant response rating, B. signalgrass” value (surinam grass; [6]) of the same compound?
Answer: 0

Question: And the “B. signalgrass plant response rating” value (surinam grass; [7])?
Answer: 4

Question: What about the “B. signalgrass plant response rating” value (surinam grass; [8]) of the same compound?
Answer: 8

Question: And the “B. signalgrass plant response rating” value (surinam grass; [9])?
Answer: 9

Question: And the “Plant response rating, B. signalgrass” value (surinam grass; [10])?
Answer: 0

Question: What about the “Corn plant response rating” value (corn; [5]) of the same compound?
Answer: 0

Question: What about the “Corn plant response rating” value (corn; [11]) of the same compound?
Answer: 0

Question: And the “Plant response rating, Corn” value (corn; [6])?
Answer: 0

Question: And the “Corn plant response rating” value (corn; [7])?
Answer: 0

Question: What about the “Corn plant response rating” value (corn; [8]) of the same compound?
Answer: 0

Question: What about the “Corn plant response rating (0 to 10 scale)” value (corn; Preemergence, Rate 250 g/ha) of the same compound?
Answer: 0

Question: And the “Corn plant response rating” value (corn; [9])?
Answer: 0

Question: What about the “Plant response rating, Corn” value (corn; [10]) of the same compound?
Answer: 0

Question: And the “Plant response rating, S. Flatsedge (0 to 10 scale, 0 is no effect, 10 is complete control)” value (smallflower flatsedge; [1])?
Answer: 0

Question: What about the “S. Flatsedge plant response rating (0 to 10 scale, 0 is no effect, 10 is complete control)” value (smallflower flatsedge; [2]) of the same compound?
Answer: 0

Question: What about the “S. Flatsedge plant response rating” value (smallflower flatsedge; [3]) of the same compound?
Answer: 0

Question: And the “S. Flatsedge plant response rating” value (smallflower flatsedge; [4])?
Answer: 0

Question: And the “Wheat plant response rating” value (wheat; [5])?
Answer: 0

Question: What about the “Plant response rating, Wheat” value (wheat; [6]) of the same compound?
Answer: 3

Question: What about the “Wheat plant response rating” value (wheat; [7]) of the same compound?
Answer: 0

Question: And the “Wheat plant response rating” value (wheat; [8])?
Answer: 0

Question: What about the “Wheat plant response rating (0 to 10 scale)” value (wheat; Preemergence, Rate 250 g/ha) of the same compound?
Answer: 0

Question: And the “Wheat plant response rating” value (wheat; [9])?
Answer: 4

Question: What about the “Plant response rating, Wheat” value (wheat; [10]) of the same compound?
Answer: 0

Question: And the “Crabgrass plant response rating” value (crabgrass; [5])?
Answer: 3

Question: What about the “Crabgrass plant response rating” value (crabgrass; [11]) of the same compound?
Answer: 9

Question: What about the “Plant response rating, Crabgrass” value (crabgrass; [6]) of the same compound?
Answer: 9

Question: And the “Crabgrass plant response rating” value (crabgrass; [7])?
Answer: 9

Question: What about the “Crabgrass plant response rating” value (crabgrass; [8]) of the same compound?
Answer: 9

Question: And the “Crabgrass plant response rating (0 to 10 scale)” value (crabgrass; Preemergence, Rate 250 g/ha)?
Answer: 8

Question: What about the “Crabgrass plant response rating” value (crabgrass; [9]) of the same compound?
Answer: 10
